According to ChEMBL document CHEMBL4765451, “The one-pot synthesis of butyl-1H-indol-3-alkylcarboxylic acid derivatives in ionic liquid as potent dual-acting agent for management of BPH” (Eur J Med Chem, 2020):

Experiments:
[1] = target: T1, Alpha-1B adrenergic receptor (Homo sapiens, UniProt P35368); test: Antagonist activity at human alpha1B receptor transfected in HEK293 cells co-transfected with Galpha16 assessed as reduction in intracellular calcium release incubated for 40 mins by Fluo-4AM dye based fluorescence assay; format: functional, cell-based
T1 sequence (P35368 whole entry): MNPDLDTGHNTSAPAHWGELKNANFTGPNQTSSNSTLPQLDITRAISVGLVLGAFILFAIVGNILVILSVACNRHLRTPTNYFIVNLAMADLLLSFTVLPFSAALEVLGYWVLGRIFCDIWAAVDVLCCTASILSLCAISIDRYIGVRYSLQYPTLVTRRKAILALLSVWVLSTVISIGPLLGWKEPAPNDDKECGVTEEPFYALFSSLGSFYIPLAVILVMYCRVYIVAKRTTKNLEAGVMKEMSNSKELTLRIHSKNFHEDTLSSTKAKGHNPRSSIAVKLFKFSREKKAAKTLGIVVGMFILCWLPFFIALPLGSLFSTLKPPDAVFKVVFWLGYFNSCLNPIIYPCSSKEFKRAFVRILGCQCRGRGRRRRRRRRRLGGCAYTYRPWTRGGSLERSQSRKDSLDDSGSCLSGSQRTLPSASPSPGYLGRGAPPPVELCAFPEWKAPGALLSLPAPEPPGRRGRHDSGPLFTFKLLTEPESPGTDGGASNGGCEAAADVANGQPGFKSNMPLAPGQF

[2] = target: T2, Alpha-1A adrenergic receptor (Homo sapiens, UniProt P35348); test: Antagonist activity at human alpha1A receptor transfected in HEK293 cells co-transfected with Galpha16 assessed as reduction in intracellular calcium release incubated for 40 mins by Fluo-4AM dye based fluorescence assay; format: functional, cell-based
T2 sequence (P35348 whole entry): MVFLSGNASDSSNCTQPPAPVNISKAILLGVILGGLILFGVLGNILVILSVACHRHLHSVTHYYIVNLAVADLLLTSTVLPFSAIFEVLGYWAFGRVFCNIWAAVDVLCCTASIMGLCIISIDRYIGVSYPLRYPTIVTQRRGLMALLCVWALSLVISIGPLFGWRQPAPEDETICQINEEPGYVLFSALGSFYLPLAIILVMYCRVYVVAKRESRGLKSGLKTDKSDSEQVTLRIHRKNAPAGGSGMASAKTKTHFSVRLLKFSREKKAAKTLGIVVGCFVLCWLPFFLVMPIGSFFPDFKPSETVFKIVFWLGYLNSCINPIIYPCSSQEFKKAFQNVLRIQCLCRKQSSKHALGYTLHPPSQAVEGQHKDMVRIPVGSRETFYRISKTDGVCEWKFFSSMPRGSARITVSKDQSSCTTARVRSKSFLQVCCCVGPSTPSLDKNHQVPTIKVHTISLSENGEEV

[3] = target: T3, Alpha-1D adrenergic receptor (Homo sapiens, UniProt P25100); test: Antagonist activity at human alpha1D receptor transfected in HEK293 cells co-transfected with Galpha16 assessed as reduction in intracellular calcium release incubated for 40 mins by Fluo-4AM dye based fluorescence assay; format: functional, cell-based
T3 sequence (P25100 whole entry): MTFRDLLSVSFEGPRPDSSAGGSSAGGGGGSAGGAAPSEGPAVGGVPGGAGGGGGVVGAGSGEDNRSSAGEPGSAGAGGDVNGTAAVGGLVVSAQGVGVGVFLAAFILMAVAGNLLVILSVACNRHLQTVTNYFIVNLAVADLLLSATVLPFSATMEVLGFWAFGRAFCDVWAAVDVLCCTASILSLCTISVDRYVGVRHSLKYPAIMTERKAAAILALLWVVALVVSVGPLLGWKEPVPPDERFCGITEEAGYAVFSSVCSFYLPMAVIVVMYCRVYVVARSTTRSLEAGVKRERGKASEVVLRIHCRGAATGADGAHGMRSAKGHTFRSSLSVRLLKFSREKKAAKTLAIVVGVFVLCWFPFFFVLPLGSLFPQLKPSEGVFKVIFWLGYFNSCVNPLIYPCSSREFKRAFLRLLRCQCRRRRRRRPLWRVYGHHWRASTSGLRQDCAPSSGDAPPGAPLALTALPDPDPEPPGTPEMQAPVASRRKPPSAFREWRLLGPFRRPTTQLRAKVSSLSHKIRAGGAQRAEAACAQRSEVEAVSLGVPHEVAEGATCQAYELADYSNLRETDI

[4] = Inhibition of 5-alpha reductase in rat liver microsomes assessed as inhibition of DHT formation using testosterone as substrate incubated for 10 mins by NADPH assay
[5] = AUC (0 to t) in Sprague-Dawley rat at 20 mg/kg, ip; format: ADME, organism-based; design: dose 20 mg/kg; conditions: in vivo
[6] = AUC (0 to t) in Sprague-Dawley rat at 2 mg/kg, iv; format: ADME, organism-based; design: dose 2 mg/kg; conditions: in vivo
[7] = Tmax in Sprague-Dawley rat at 20 mg/kg, ip; format: ADME, organism-based; conditions: in vivo
Huh-7 = test: Cytotoxicity against human Huh-7 cells assessed as reduction in cell viability at 0.390625 to 100 uM incubated for 72 hrs by MTT assay; format: cell-based; conditions: huh-7, 72 h, dose 0.390625-100 µM
[8] = AUC (0 to infinity) in Sprague-Dawley rat at 20 mg/kg, ip; format: ADME, organism-based; design: time infinity, route intraperitoneal, dose 20 mg/kg; conditions: in vivo
[9] = Bioavailability in Sprague-Dawley rat at 20 mg/kg, ip; format: ADME, organism-based; conditions: in vivo
[10] = Cmax in Sprague-Dawley rat at 2 mg/kg, iv; format: ADME, organism-based; design: route intravenous, dose 2 mg/kg; conditions: in vivo
Caco-2 = test: Cytotoxicity against human Caco-2 cells assessed as reduction in cell viability at 0.390625 to 100 uM incubated for 72 hrs by MTT assay; format: cell-based; conditions: caco-2, 72 h, dose 0.390625-100 µM
[11] = MRT in Sprague-Dawley rat at 20 mg/kg, ip; format: ADME, organism-based; conditions: in vivo
[12] = Half life in Sprague-Dawley rat at 20 mg/kg, ip; format: ADME, organism-based; conditions: in vivo
[13] = Tmax in Sprague-Dawley rat at 2 mg/kg, iv; format: ADME, organism-based; conditions: in vivo
[14] = AUC (0 to infinity) in Sprague-Dawley rat at 2 mg/kg, iv; format: ADME, organism-based; design: time infinity, route intravenous, dose 2 mg/kg; conditions: in vivo
[15] = Half life in Sprague-Dawley rat at 2 mg/kg, iv; format: ADME, organism-based; conditions: in vivo
[16] = MRT in Sprague-Dawley rat at 2 mg/kg, iv; format: ADME, organism-based; conditions: in vivo
[17] = Cmax in Sprague-Dawley rat at 20 mg/kg, ip; format: ADME, organism-based; design: route intraperitoneal, dose 20 mg/kg; conditions: in vivo

Compound | IC50 [1] [nM] | IC50 [2] [nM] | IC50 [3] [nM] | IC50 [4] [nM] | further results
COc1ccccc1N1CCN(CCCCCn2cc(CCCC(=O)O)c3ccccc32)CC1 | 9.8 | > 1000 | 378 | > 5000 | 
O=C(O)CCCc1cn(CCCCCN2CCN(c3ccccc3Cl)CC2)c2ccccc12 | > 1000 | 32.9 | 329 | 612 | 
COc1ccccc1N1CCN(CCCCn2cc(CCCC(=O)O)c3ccccc32)CC1 | > 1000 | 20.8 | 189 | 568 | AUC(0-t) [5]: 17.5 ng·h/mL; AUC(0-t) [6]: 12.3 ng·h/mL; Tmax [7]: 3 min; Activity (Huh-7): Non-Toxic; AUC(0-inf) [8]: 26.9 ng·h/mL; bioavailability [9]: 8.83%; Cmax [10]: 37.9 ng/mL; Activity (Caco-2): Non-Toxic; MRT [11]: 1.49 h; half-life [12]: 5.75 h; Tmax [13]: 3 min; AUC(0-inf) [14]: 30.5 ng·h/mL; half-life [15]: 11 h; MRT [16]: 1.94 h; Cmax [17]: 89.6 ng/mL
O=C(O)CCCc1cn(CCCCN2CCN(c3ccccc3Cl)CC2)c2ccccc12 | > 1000 | > 1000 | 189 | > 5000 | 
COc1ccccc1N1CCN(CCCn2cc(CCCC(=O)O)c3ccccc32)CC1 | > 1000 | > 1000 | 164 | > 5000 | 
CC(C)(C)NC(=O)[C@H]1CC[C@H]2[C@@H]3CC[C@H]4NC(=O)C=C[C@]4(C)[C@H]3CC[C@]12C [FINASTERIDE] |  |  |  | 590 | 
CCOc1ccccc1OCCN[C@H](C)Cc1ccc(OC)c(S(N)(=O)=O)c1 [TAMSULOSIN] | 4.2 |  | 0.15 |  | 
